# According to patent US10307410B2, “Mcl-1 modulating compounds for cancer treatment” (CENTRE REGIONAL DE LUTTE CONTRE LE CANCER FRANCOIS BACLESSE, priority 2014, dated 2019):
# Assays:
# [1] = tested on: IGROV1-R10 ovarian cancer cells; assay: PARP and caspase 3 cleavage by western blot; assay type: cell-based; design: key to PARP cleavage: +: a little band corresponding to the 85 kDa cleaved form of PARP is observable on the western blot; ++: a band corresponding to the 85 kDa cleaved form of PARP is clearly observable on the western blot; +++: PARP in nearly completely cleaved
# Procedure: Exponentially growing cells were transfected by siRNA as described below, and after 48 h, cells were continuously exposed to (Het)aromatic oligosystems (10, 25 or 50 μM) dissolved in DMSO (<0.1% of total volume) for 4 to 24 supplementary hours.
# Cells were seeded in 25 cm^2 flasks the day before to reach 30-50% confluency at the time of transfection. The transfection INTERFERin™ reagent (Polyplus Transfection, Strasbourg. France) was added to siRNA diluted in Opti-MEM® reduced serum medium (Invitrogen, Cergy-Pontoise, France) and complexes formation was allowed to proceed for 15 min at RT before being applied to cells. The final siRNA concentration in the flasks was 20 nM.
# Cells were rinsed with ice-cold PBS, suspended in a lysis buffer [RIPA:NaCl 150 mM, Tris (pH 8) 50 mM, Triton X100 1%, PMSF 4 mM, EDTA 5 mM, NaF 10 mM, NaPPi 10 mM, Na3OV4 1 mM, aprotinin 0.5 μl/ml and 4.6 ml ultra pure water] and incubated on ice for 30 minutes. Lysates were collected after centrifugation (13200 g, 10 min, 4° C.) and protein concentrations were determined using the Bradford assay (Bio-Rad, Hercules, USA). 20 μg of protein were separated by SDS-PAGE on a 4-12% gradient polyacrylamide gel (Invitrogen, Cergy-Pontoise, France) and transferred to Hybond-PVDF membranes (Amersham, Orsay, France). After blocking non-specific binding sites for 1 hour at RT by 5% (w/v) non-fat dry milk in TBS with 0.1% (v/v) Tween20 (T-TBS), the membranes were incubated overnight at 4° C. with the following rabbit monoclonal antibody: PARP, caspase-3 and Bcl-xL, Bim (Cell Signaling Technology, Ozyme, Saint-Quentin-en-Yvelines, France), Mcl-1 (Santa Cruz, Le Perray-en-Yvelines, France), HSP-70, Noxa (Calbiochem, Fontenay-sous-Bois, France), (Cell Signalling) and Actin (Sigma-Aldrich, Saint-Quentin Fallavier, France). Membranes were then washed with T-TBS and incubated for 1 hour with the appropriate horseradish peroxidase-conjugated anti-rabbit or anti-mouse (Amersham, Orsay, France) secondary antibodies. Revelation was done using a luminescent Image Analyzer (GE Healthcare, Orsay, France).
# [2] = tested on: SKOV3 chemoresistant ovarian cancer cells; assay: Pyridoclax / ABT-737 association, apoptotic cell death; assay type: cell-based, human
# Procedure: (§1) FIG. 4 represents the effect of the association of Pyridoclax with ABT-737 on chemoresistant ovarian cancer cells IGROV1-R10 (top) and SKOV3 (bottom). Cells were concomitantly (A, E) or sequentially (B) exposed to 25 μM Pyridoclax and 5 μM ABT-737, and cellular effects were assessed either longitudinally (A, B, E) or after 24 h (C, D, F). [A, B, E] real time cellular activity assessed by impedancmetry (xCELLigence technology), after concomitant exposure (A, E) or sequential exposure (B; 24 h Pyridoclax, then ABT-737). [C]: Cellular morphology and DNA content histograms after a 24 h concomitant exposure. [D and F]: PARP and caspase 3 cleavage after a 24 h concomitant exposure.
# (§2) Adherent and floating cells were pooled, washed with 1×PBS and centrifuged at 200 g for 5 min before staining by Annexin V, propidium iodide or both, as recommended by the manufacturer (Roche Diagnostic, Indianapolis, USA). Briefly, 100 μl of Annexin V—Flit or propidium iodide or both were added on the cells pellet (10^6 cells) and incubated 15 minutes at room temperature in obscurity. 500 μl of sample buffer was then added on the suspensions that were thereafter analyzed using a Gallios flow cytometer (Beckman Coulter, Roissy, France) and cell cycle distribution was determined using Kaluza acquisition software (Beckman Coulter).
# (§3) Cells were rinsed with ice-cold PBS, suspended in a lysis buffer [RIPA:NaCl 150 mM, Tris (pH 8) 50 mM, Triton X100 1%, PMSF 4 mM, EDTA 5 mM, NaF 10 mM, NaPPi 10 mM, Na3OV4 1 mM, aprotinin 0.5 μl/ml and 4.6 ml ultra pure water] and incubated on ice for 30 minutes. Lysates were collected after centrifugation (13200 g, 10 min, 4° C.) and protein concentrations were determined using the Bradford assay (Bio-Rad, Hercules, USA). 20 μg of protein were separated by SDS-PAGE on a 4-12% gradient polyacrylamide gel (Invitrogen, Cergy-Pontoise, France) and transferred to Hybond-PVDF membranes (Amersham, Orsay, France). […]
# Mcl-1/Puma interaction = biological target: T1, Mcl-1/Puma interaction (Homo sapiens, UniProt Q07820); assay: BRET assay, Mcl-1/Puma interaction; assay type: cell-based; conditions: BRET in Hela cells, 16 hours
# T1 construct: expressed in transfected cells; host or cells: HeLa cells
# Procedure: Hela cells were seeded on 6-well plates and transfected with 200 ng/well of plasmid pRLuc-Bax, pRLuc-Puma or pRLuc-Noxa coding for BRET donors and 1 µg/well of peYFP-Bcl-xL or peYFP-Mcl-1 coding for BRET acceptors (or with pCMV-Bcl-xL or pCMV-Mcl-1 for control). Twenty-four hours after transfection, cells were trypsinized and re-seeded into white 96 well plate flat bottom, incubated for another day, and then treated with drugs for 16 hours at 10 μM. Light emission at 485 nm and 530 nm was measured consecutively using the Mithras fluorescence-luminescence detector LB 940 (Berthold) after adding the luciferase substrate, coelenterazine H (Uptima) at a final concentration of 5 μM. BRET ratios were calculated as described [Terrillon et al. (2003) Mol Endocrinol 17, 677-691, Vo et al. (2012) Eur J Med Chem., 286-93].
# [3] = tested on: IGROV1-R10 chemoresistant ovarian cancer cells; assay: Pyridoclax / ABT-737 association, apoptotic cell death; assay type: cell-based
# Procedure: as §1, §2, §3
# [4] = tested on: SKOV3 chemoresistant ovarian cancer cells; assay: Real-time cellular activity by impedancemetry (xCELLigence); assay type: cell-based, human; conditions: SKOV3, 25 μM Pyridoclax + 5 μM ABT-737
# Procedure: as §1
# Compound-mediated cytotoxicity was monitored using Real-Time Cell Analyzer multi-plate (RTCA MP) Instrument, xCELLigence System (Roche Applied Science, Mannheim, Germany). This system monitors cellular events in real time measuring electrical impedance across interdigitated micro-electrodes integrated on the bottom of tissue culture E-plates View (Roche). […] Thus, this index reflects changes in cell viability as described by Ke et al. (2011, Methods Mol Biol 740, 33-43). […] Impedance was continuously measured until the end of the treatment. Standard deviations of well replicates were analyzed with the RTCA Software.
# [5] = tested on: IGROV1-R10 ovarian cancer cells; assay: Annexin V/propidium iodide flow cytometry; assay type: cell-based; conditions: IGROV1-R10, 10 nM siXL1 48 h then 25 μM Pyridoclax 24 h
# Procedure: as §2
# T1 sequence (Q07820 whole entry): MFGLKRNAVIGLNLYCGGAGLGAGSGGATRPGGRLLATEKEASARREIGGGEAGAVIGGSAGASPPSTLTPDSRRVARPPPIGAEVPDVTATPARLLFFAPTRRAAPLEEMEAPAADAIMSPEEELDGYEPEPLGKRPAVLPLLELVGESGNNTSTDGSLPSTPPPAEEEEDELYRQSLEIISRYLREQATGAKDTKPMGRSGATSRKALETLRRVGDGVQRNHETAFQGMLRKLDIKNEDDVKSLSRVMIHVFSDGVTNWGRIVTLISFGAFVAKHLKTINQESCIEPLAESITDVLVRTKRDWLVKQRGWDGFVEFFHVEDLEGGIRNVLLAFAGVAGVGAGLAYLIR
compound,measurement,setting,value
"Cc1cc(-c2ncc(-c3cccnc3)cc2/C=C/c2ccccc2)cnc1-c1cccnc1 [Pyridoclax, 5,6′-di(pyridin-3-yl)-5′-methyl-3-((E)-styryl)-2,3′-bipyridine]",cleavage of PARP and caspase 3,"[1]; IGROV1-R10, Pyridoclax associated to siXL1",complete cleavage of PARP and caspase 3
same,PARP cleavage,[1]; Molecule + Bcl-xL targeting siRNA,+++
same,"cell death, combination with ABT-737","[2]; SKOV3, 25 μM Pyridoclax + 5 μM ABT-737",massive apoptotic cell death
same,cell death as single agent,"[2]; SKOV3, single agent",neither ABT-737 nor Pyridoclax induced cell death as single agents
same,effect on Mcl-1/Puma interaction,Mcl-1/Puma interaction; 10 μM,able to disrupt
same,inhibition at 10 µM,Mcl-1/Puma interaction,~50%
same,"cell death, combination with ABT-737","[3]; IGROV1-R10, 25 μM Pyridoclax + 5 μM ABT-737",massive apoptotic cell death
same,cell death as single agent,"[3]; IGROV1-R10, single agent",neither ABT-737 nor Pyridoclax induced cell death as single agents
same,cellular activity (impedancemetry),[4],drastically decreased
same,fraction of annexin V positive cells,[5],60%
